Our source for the IC50 values is publication PMC2065875, “A Point Mutation in a Herpesvirus Polymerase Determines Neuropathogenicity” (PLoS Pathogens, 2007).

Assay [1] addresses T1, EHV-1 Pol D752 + pORF18 (viral DNA polymerase holoenzyme) (Equine herpesvirus type 1 (strain AB4P), UniProt P28858).
T1 construct: gene 30; Pol (D752) from pTM1-ORF30 made by in vitro transcription-translation (TNT T7 coupled reticulocyte lysate, not purified); pORF18 purified, baculovirus-expressed; with DNA polymerase processivity factor
Put plainly: [3H]dTTP incorporation into poly(dA)-oligo(dT), in vitro translated Pol. The following applies: poly(dA)-oligo(dT) template, 4 μl translated Pol plus 200 fmol pORF18 in 20 μl, 0.5% DMSO. The format is biochemical.

Assay [2] concerns the target T2, EHV-1 Pol D752 + pORF18 (viral DNA polymerase holoenzyme) (Equine herpesvirus type 1 (strain AB4P), UniProt P28858, D752N).
T2 construct: gene 30
The conditions noted are these: poly(dA)-oligo(dT) template, [3H]dTTP; 4 μl translated Pol plus 200 fmol pORF18 in 20 μl; 0.5% DMSO.

T2 sequence (P28858 whole entry, stated change not applied): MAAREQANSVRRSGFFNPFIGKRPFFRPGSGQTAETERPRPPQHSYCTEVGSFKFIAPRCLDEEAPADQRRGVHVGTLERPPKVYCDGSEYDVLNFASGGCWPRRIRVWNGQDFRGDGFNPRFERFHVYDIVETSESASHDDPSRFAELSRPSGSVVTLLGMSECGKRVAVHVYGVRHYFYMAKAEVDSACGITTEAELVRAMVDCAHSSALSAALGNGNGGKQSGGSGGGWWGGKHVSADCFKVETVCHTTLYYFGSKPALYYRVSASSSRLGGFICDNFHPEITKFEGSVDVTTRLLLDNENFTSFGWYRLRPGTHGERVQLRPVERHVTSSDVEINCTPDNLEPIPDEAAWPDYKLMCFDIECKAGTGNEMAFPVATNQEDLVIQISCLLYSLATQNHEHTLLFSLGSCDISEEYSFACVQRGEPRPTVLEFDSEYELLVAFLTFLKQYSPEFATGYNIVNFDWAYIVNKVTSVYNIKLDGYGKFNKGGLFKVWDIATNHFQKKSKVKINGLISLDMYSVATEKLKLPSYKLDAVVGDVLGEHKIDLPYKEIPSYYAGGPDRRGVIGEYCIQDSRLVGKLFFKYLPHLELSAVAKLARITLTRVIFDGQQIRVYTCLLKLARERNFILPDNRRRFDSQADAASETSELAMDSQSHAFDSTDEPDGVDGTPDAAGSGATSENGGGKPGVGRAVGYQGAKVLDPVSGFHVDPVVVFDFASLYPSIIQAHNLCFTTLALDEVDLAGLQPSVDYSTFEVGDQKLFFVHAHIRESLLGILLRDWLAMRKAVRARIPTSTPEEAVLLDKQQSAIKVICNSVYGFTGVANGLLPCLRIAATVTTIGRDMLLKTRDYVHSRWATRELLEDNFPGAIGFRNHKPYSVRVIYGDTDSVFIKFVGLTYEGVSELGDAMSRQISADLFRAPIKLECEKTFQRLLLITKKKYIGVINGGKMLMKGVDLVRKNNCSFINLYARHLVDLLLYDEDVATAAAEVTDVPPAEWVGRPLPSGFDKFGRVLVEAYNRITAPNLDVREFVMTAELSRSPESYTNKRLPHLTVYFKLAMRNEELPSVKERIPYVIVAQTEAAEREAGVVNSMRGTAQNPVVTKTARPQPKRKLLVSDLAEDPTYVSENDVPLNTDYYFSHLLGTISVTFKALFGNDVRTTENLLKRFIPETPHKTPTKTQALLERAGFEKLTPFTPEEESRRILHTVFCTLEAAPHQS
T2 sequence (P28958 whole entry, stated change not applied, further chain): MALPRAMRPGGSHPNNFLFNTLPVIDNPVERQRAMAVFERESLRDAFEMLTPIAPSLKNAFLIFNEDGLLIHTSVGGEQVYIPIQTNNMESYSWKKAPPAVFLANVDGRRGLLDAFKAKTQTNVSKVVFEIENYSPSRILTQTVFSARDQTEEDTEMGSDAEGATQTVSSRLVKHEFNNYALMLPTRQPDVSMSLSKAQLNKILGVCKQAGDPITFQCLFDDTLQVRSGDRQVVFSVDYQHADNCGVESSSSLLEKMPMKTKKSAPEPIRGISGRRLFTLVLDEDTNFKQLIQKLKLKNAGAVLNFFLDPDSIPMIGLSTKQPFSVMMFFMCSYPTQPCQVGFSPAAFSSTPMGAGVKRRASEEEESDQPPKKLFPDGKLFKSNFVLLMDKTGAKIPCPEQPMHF
T1 sequence (P28958 whole entry): as the sequence (P28958 whole entry, stated change not applied, further chain) above
T1 sequence (P28858 whole entry): as the sequence (P28858 whole entry, stated change not applied) above

For aphidicolin, the IC50 (in general, the point on the concentration scale where inhibition reaches its midpoint) in assay [1] was determined as 3.1 µM; in assay [2], 0.9 µM.
